Test results from patent EP0322748B1, “Antibiotic NK86-0279, process for production of the same and application of the same” (NIPPON KAYAKU KABUSHIKI KAISHA, priority 1987, dated 1989).
Values after ≈ are worked out from the molar mass of the structure shown.

What was measured:
[1] = tested on: mouse colonic cancer cells (Colon 26); experiment: growth-inhibitory effect on mouse colonic cancer cells, dye exclusion method; assay type: cell-based
Method: (§1) The growth-inhibitory effects of the compound of the present invention on mouse colonic cancer cells (Colon 26) and human colonic cancer cells (SWlll6) were examined. A 96-well plate was inoculated with mouse colonic cancer cells at a ratio of 1.5 x 10³ cells per well, while another 96-well plate was inoculated with human colonic cancer cells at a ratio of 3.0 x 10³ per well. These cells were incubated in an incubator at 37°C under 5 % CO₂ for 24 hours. Then the compound of the present invention was added thereto at various concentrations. Cells in each well were counted by the dye exclusion method 65 hours and 96 hours after the addition to thereby evaluate the growth-inhibitory effect of the test compound on the mouse colonic cancer cells and that on the human colonic cancer cells.

[2] = tested on: Sporobolomyces salmonicolor; experiment: antifungal spectrum (minimum inhibitory concentration on agar); assay type: cell-based; conditions: Czapek Dox solution agar
Excerpt: (§2) The antifungal spectrum of the compound of the present invention was examined.

Aspergillus oryzae = experiment: as above; assay type: cell-based; conditions: Czapek Dox solution agar
Excerpt: as §2

Rhizopus hangchao = experiment: as above; assay type: cell-based; conditions: Czapek Dox solution agar
Excerpt: as §2

Saccharomyces cerevisiae = experiment: as above; assay type: cell-based; conditions: Czapek Dox solution agar
Excerpt: as §2

Glomerella cingulata = experiment: as above; assay type: cell-based; conditions: Colletotrichum gloeosporioides; Czapek Dox solution agar
Excerpt: as §2

Penicillium chrysogenum = experiment: as above; assay type: cell-based; conditions: Czapek Dox solution agar
Excerpt: as §2

Aspergillus niger = experiment: as above; assay type: cell-based; conditions: Czapek Dox solution agar
Excerpt: as §2

Candida albicans = experiment: as above; assay type: cell-based; conditions: Czapek Dox solution agar
Excerpt: as §2

Botrytis cinerea = experiment: as above; assay type: cell-based; conditions: potato sucrose agar medium was used
Excerpt: as §2

Fusarium roseum f. sp. = experiment: as above; assay type: cell-based; conditions: Fusarium sambucinum; Czapek Dox solution agar
Excerpt: as §2

Torula herbarum = experiment: as above; assay type: cell-based; conditions: Czapek Dox solution agar
Excerpt: as §2

Mucor javanicus = experiment: as above; assay type: cell-based; conditions: Czapek Dox solution agar
Excerpt: as §2

HeLa S₃ cells = experiment: growth-inhibitory effect on HeLa S3 culture cells, dye exclusion method; assay type: cell-based; conditions: Homo sapiens, 72 h, three days after the addition
Method: The growth-inhibitory effect of the compound of the present invention on HeLa S₃ culture cells was examined. A 96-well plate was inoculated with HeLa S₃ cells at a ratio of 1.5 x 10³ cells/well and incubated in an incubator at 37°C under 5% CO2 for 24 hours. One day after the inoculation, the compound of the present invention was added to the culture medium at various concentrations. Three days after the addition, cells in each well were counted by the dye exclusion method to thereby evaluate the growth-inhibitory effect of the compound of the present invention at various concentrations on HeLa S₃ cells.

[3] = tested on: human melanoma cells (A375); experiment: growth-inhibitory effect on human melanoma cells, dye exclusion method; assay type: cell-based
Method: as §1, with “melanoma” for “colonic cancer”, “(B16)” for “(Colon 26)”, “(A375)” for “(SWlll6)”, “1.0” for “3.0”, “CO₂.” for “CO₂ for 24 hours.”, “hours” for “hours and 96 hours”

[4] = tested on: mouse breast cancer (Ehrlich B); experiment: anti-cancer action against grafted mouse breast cancer, tumor volume; assay type: in vivo
Excerpt: The anti-cancer action of the compound of the present invention against mouse lung cancer (lewis lung carcinoma) and mouse breast cancer (Ehrlich B) was examined. 1 x 10⁶ mouse lung cancer cells or mouse breast cancer cells were grafted into a subcutaneous portion of the groin of an eight week-old male BDF₁ or ICR mouse, and the compound of the present invention was intraperitoneally administered to the mouse in various concentrations every day from two days after the graft once a day for 9 days. On the second day after completion of the administration, the minor axis and the major axis of the tumor were measured, and the volume of the tumor was determined by using the following equation: (minor axis)² x […]/2 [formula] . Then, the percentage inhibition of proliferation of each tumor with respect to the compound of the present invention was determined from the ratio of the volume of the tumor on the groups of administration of the compound of the present invention relative to that on the control group.

[5] = tested on: mouse malignant melanoma (B16 melanotic melanoma); experiment: in-vivo test by intravenous administration against mouse malignant melanoma, tumor volume; design: species or system C57BL/6 mouse
Excerpt: The anti-cancer action of the compound of the present invention against mouse malignant melanoma (B16 melanotic melanoma) was examined. 5 x 10⁵ mouse malignant melanoma cells were inoculated into a subcutaneous portion of the right body side of a 6 week-old male C57BL/6 mouse, and the compound of the present invention was intravenously administered to the mouse in various concentrations every day from the next day or from 7 days after the inoculation once a day for 5 days. On the 11 days after the inoculation, the minor axis and the major axis of the tumor were measured, and the volume of the tumor was determined by using the following equation: (minor axis)² x […]/2 [formula] . Then, the percentage inhibition of proliferation of each tumor with respect to the compound of the present invention was determined from the ratio of the volume of the tumor on the groups of administration of the compound of the present invention relative to that on the control group.

CCC1C=CC=CCC(C)C(O)C(C)(O)C(=O)C(C)C(O)C(C)C(=O)C(C)C(O)C(C)C=CC(=O)OC2C(C)C(CC1)OC1(OC(CC(C)O)C(C)CC1=O)C2CC (stereo not shown) [NK86-0279]
inhibition at 0.0061 µg/mL ([1]; Mus musculus, Colon 26, 0.0061 µg/ml, read-out: Growth-inhibitory ratio): 84.6% | inhibition at 0.024 µg/mL ([1]; Mus musculus, Colon 26, 0.024 µg/ml, read-out: Growth-inhibitory ratio): 87.5% | inhibition at 0.098 µg/mL ([1]; Mus musculus, Colon 26, 0.098 µg/ml, read-out: Growth-inhibitory ratio): 86.1% | inhibition at 0.39 µg/mL ([1]; Mus musculus, Colon 26, 0.39 µg/ml, read-out: Growth-inhibitory ratio): 87.6% | inhibition at 1.56 µg/mL ([1]; Mus musculus, Colon 26, 1.56 µg/ml, read-out: Growth-inhibitory ratio): 94.2% | inhibition at 6.25 µg/mL ([1]; Mus musculus, Colon 26, 6.25 µg/ml, read-out: Growth-inhibitory ratio): 105% | inhibition at 25 µg/mL ([1]; Mus musculus, Colon 26, 25 µg/ml, read-out: Growth-inhibitory ratio): 108% | inhibition at 100 µg/mL ([1]; Mus musculus, Colon 26, 100 µg/ml, read-out: Growth-inhibitory ratio): 104% | IC50 ([1]; mouse colonic cancer cells (Colon 26), read-out: IC₅₀): < 6.1 ng/mL | MIC [2]: 6.25 µg/mL (≈ 7.63 µM) | MIC (Aspergillus oryzae): 3.13 µg/mL (≈ 3.82 µM) | MIC (Rhizopus hangchao): 6.25 µg/mL (≈ 7.63 µM) | MIC (Saccharomyces cerevisiae): > 100 µg/mL | MIC (Glomerella cingulata): 6.25 µg/mL (≈ 7.63 µM) | MIC (Penicillium chrysogenum): 1.56 µg/mL (≈ 1.9 µM) | MIC (Aspergillus niger): 6.25 µg/mL (≈ 7.63 µM) | MIC (Candida albicans): > 100 µg/mL | MIC (Botrytis cinerea): 12.5 µg/mL (≈ 15.3 µM) | MIC (Fusarium roseum f. sp.): 6.25 µg/mL (≈ 7.63 µM) | MIC (Torula herbarum): 3.13 µg/mL (≈ 3.82 µM) | MIC (Mucor javanicus): > 100 µg/mL | IC50 (HeLa S₃ cells; HeLa S₃ cells, read-out: IC₅₀): 2.7 ng/mL (≈ 0.0033 µM) | inhibition at 0.00064 µg/mL (HeLa S₃ cells; HeLa, 0.00064 µg/ml, read-out: Growth-inhibitory ratio): 22.9% | inhibition at 0.0032 µg/mL (HeLa S₃ cells; HeLa, 0.0032 µg/ml, read-out: Growth-inhibitory ratio): 53.5% | inhibition at 0.016 µg/mL (HeLa S₃ cells; HeLa, 0.016 µg/ml, read-out: Growth-inhibitory ratio): 61.2% | inhibition at 0.08 µg/mL (HeLa S₃ cells; HeLa, 0.08 µg/ml, read-out: Growth-inhibitory ratio): 73.5% | inhibition at 0.4 µg/mL (HeLa S₃ cells; HeLa, 0.4 µg/ml, read-out: Growth-inhibitory ratio): 81.2% | IC50 ([3]; A-375, human melanoma cells (A375), 65 hours after the addition, read-out: IC₅₀): 1.87 µg/mL (≈ 2.28 µM) | inhibition at 0.0061 µg/mL ([3]; Homo sapiens, A-375, 65 h, A375, 0.0061 µg/ml, read-out: Growth-inhibitory ratio): 19.7% | inhibition at 0.024 µg/mL ([3]; Homo sapiens, A-375, 65 h, A375, 0.024 µg/ml, read-out: Growth-inhibitory ratio): 39.7% | inhibition at 0.098 µg/mL ([3]; Homo sapiens, A-375, 65 h, A375, 0.098 µg/ml, read-out: Growth-inhibitory ratio): 49.4% | inhibition at 0.39 µg/mL ([3]; Homo sapiens, A-375, 65 h, A375, 0.39 µg/ml, read-out: Growth-inhibitory ratio): 43.7% | inhibition at 1.56 µg/mL ([3]; Homo sapiens, A-375, 65 h, A375, 1.56 µg/ml, read-out: Growth-inhibitory ratio): 44.4% | inhibition at 6.25 µg/mL ([3]; Homo sapiens, A-375, 65 h, A375, 6.25 µg/ml, read-out: Growth-inhibitory ratio): 83.6% | inhibition at 25 µg/mL ([3]; Homo sapiens, A-375, 65 h, A375, 25 µg/ml, read-out: Growth-inhibitory ratio): 105% | inhibition at 100 µg/mL ([3]; Homo sapiens, A-375, 65 h, A375, 100 µg/ml, read-out: Growth-inhibitory ratio): 105% | Growth-inhibitory ratio (tumor volume) ([4]; 0.032 mg/kg intraperitoneally once a day for 9 days): 22.5% | Growth-inhibitory ratio (tumor volume) ([4]; 0.063 mg/kg intraperitoneally once a day for 9 days): -0.4% | Growth-inhibitory ratio (tumor volume) ([4]; 0.125 mg/kg intraperitoneally once a day for 9 days): 44.3% | Growth-inhibitory ratio (tumor volume) ([4]; 0.250 mg/kg intraperitoneally once a day for 9 days, 0.25 mg/kg): 67% | Growth-inhibitory ratio (tumor volume) ([4]; 0.500 mg/kg intraperitoneally once a day for 9 days): 61.7% | Growth-inhibitory ratio (tumor volume) ([5]; 0.05 mg/kg intravenously once a day for 5 days, administered from 7 days after the inoculation): 57.4% | Growth-inhibitory ratio (tumor volume) ([5]; 0.05 mg/kg intravenously once a day for 5 days, administered from the next day of the inoculation): 57.0% | Growth-inhibitory ratio (tumor volume) ([5]; 0.10 mg/kg intravenously once a day for 5 days, administered from 7 days after the inoculation): 69.1% | Growth-inhibitory ratio (tumor volume) ([5]; 0.10 mg/kg intravenously once a day for 5 days, administered from the next day of the inoculation): 62.9% | Growth-inhibitory ratio (tumor volume) ([5]; 0.20 mg/kg intravenously once a day for 5 days, administered from 7 days after the inoculation): 76.6% | Growth-inhibitory ratio (tumor volume) ([5]; 0.20 mg/kg intravenously once a day for 5 days, administered from the next day of the inoculation): 56.9% | Growth-inhibitory ratio (tumor volume) ([5]; 0.40 mg/kg intravenously once a day for 5 days, administered from 7 days after the inoculation): 81.9% | Growth-inhibitory ratio (tumor volume) ([5]; 0.40 mg/kg intravenously once a day for 5 days, administered from the next day of the inoculation): 50.5%
